Data: patent US20250340604A1, “BLOOD-BRAIN BARRIER TRANSLOCATING PEPTIDES AND RELATED MOLECULES AND METHODS OF USE THEREOF” (Enkefalos Biosciences, Inc., priority 2022, published 2025)
Like-named read-outs stand apart in the source and are kept apart here. Values belong to the substance of their own block, whether it stands above or below them. Ends that are not written are not given here.

How the values were obtained:
[1] = rat, even after repeat dose; cited from earlier work
[2] = mouse, even after repeat dose; cited from earlier work
[3] = monovalent trastuzumab knob-hole cyclotide fusions, 25 mg/kg, 24 hours, brain homogenate ELISA, versus trastuzumab alone; FIG. 8B
Experimental: Female C57BL/6 mice, age 10-12 weeks, were weighed and administered purified trastuzumab antibody or trastuzumab antibody-monovalent cyclotide fusions, made monovalent by knobs-holes fusion (targeting IGF1R, LRP1, or RAGE receptors) in triplicate at 25 mg/kg in phosphate buffered saline (PBS). After 24 hours, mice were perfused with Dulbecco's PBS containing anesthetic via aortic puncture and brains were removed. One brain hemisphere was transferred to 4% paraformaldehyde in PBS for 24 hours at 4° C., then transferred to PBS at 4° C., paraffin embedded, thin-sectioned using a microtome, and slices were mounted on slides for immunohistochemistry (IHC). The other brain hemisphere was flash frozen and stored at −80° C. prior to homogenization. […]
Antibodies present in brain were quantified by enzyme-linked immunosorbent assay (ELISA). […] Plates were washed 4 times with TBST and once with TBS, developed with 3,3′,5,5′-tetramethylbenzidine (TMB) for 2 minutes, quenched with 1 N sulfuric acid, and read at 450 nm in a SpectraMax plate reader. […] Amounts of antibodies (e.g., antibody fusion proteins or antibody alone) present in brain homogenates were determined by interpolation from each standard curve and were expressed as percents of injected dose per gram of brain (FIG. 8B).

[4] = biological target: T1, human transferrin receptor (hTfR) (Homo sapiens, UniProt P02786); assay: Flow cytometry internalization assay, hTfR-expressing HEK293F cells; type: cell-based; settings: 50 nM Alexafluor 488 labeled protein, 4 h at 37° C., HEK293F cells transfected with hTfR; FIG. 2
T1 construct: expressed in transfected cells; host or cells: HEK293F
T1 sequence (P02786 whole entry): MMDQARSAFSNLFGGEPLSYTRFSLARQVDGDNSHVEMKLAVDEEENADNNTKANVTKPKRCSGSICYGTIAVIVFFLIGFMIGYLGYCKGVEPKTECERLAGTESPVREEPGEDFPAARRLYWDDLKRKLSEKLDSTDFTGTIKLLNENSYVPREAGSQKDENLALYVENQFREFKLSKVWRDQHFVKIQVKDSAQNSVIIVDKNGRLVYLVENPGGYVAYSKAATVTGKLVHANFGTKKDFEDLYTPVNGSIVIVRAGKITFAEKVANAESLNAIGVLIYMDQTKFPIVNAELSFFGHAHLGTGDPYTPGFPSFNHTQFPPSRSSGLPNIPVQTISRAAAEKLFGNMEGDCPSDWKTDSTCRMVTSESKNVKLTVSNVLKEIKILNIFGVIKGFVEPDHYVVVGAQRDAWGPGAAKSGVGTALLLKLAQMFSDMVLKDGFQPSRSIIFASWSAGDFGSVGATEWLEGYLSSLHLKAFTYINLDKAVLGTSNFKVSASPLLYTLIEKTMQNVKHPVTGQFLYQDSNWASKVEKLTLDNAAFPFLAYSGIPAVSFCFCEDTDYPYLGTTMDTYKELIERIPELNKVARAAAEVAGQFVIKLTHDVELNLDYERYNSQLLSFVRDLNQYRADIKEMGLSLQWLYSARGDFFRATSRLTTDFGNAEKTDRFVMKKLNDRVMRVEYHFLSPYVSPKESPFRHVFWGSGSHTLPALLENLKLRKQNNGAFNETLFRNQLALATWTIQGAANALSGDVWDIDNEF
Experimental: (§1) Free dye was then removed by passage through one to two desalting columns. HEK293F cells were first serially passaged two to three times, then transfected with expression constructs encoding human or mouse transferrin receptor ([…], respectively), and grown for 2-3 days at 37° C., 8% CO2, 130 rpm shaking in preparation for the assay. […] Cells were then pelleted, supernatant discarded, and resuspended in 40 μL fresh media containing 250 nM anti-488 quenching antibody (or media lacking 488 quenching antibody as a control), incubated on ice for 5 min, pelleted, supernatant discarded, washed with 200 μL cold FACS buffer, pelleted, supernatant discarded, and resuspended in 200 μL cold FACS buffer. Each sample was then subjected to FACS analysis using the FITC fluorescence detection channel, using Gate 1 (forward scatter linear vs. side scatter linear) to select live cells with normal morphology, using Gate 2 (side scatter area vs. side scatter linear) to select single cells, and measuring logarithmic FITC signal for 20,000-50,000 cells per sample. Subsequent data analysis was carried out using the FlowJo software package.

[5] = biological target: T2, mouse transferrin receptor (mTfR) (Mus musculus, UniProt Q62351); assay: Flow cytometry internalization assay, mTfR-expressing HEK293F cells; type: cell-based; settings: 50 nM Alexafluor 488 labeled protein, 4 h at 37° C., HEK293F cells transfected with mTfR; FIG. 2
T2 construct: expressed in transfected cells; host or cells: HEK293F
T2 sequence (Q62351 whole entry): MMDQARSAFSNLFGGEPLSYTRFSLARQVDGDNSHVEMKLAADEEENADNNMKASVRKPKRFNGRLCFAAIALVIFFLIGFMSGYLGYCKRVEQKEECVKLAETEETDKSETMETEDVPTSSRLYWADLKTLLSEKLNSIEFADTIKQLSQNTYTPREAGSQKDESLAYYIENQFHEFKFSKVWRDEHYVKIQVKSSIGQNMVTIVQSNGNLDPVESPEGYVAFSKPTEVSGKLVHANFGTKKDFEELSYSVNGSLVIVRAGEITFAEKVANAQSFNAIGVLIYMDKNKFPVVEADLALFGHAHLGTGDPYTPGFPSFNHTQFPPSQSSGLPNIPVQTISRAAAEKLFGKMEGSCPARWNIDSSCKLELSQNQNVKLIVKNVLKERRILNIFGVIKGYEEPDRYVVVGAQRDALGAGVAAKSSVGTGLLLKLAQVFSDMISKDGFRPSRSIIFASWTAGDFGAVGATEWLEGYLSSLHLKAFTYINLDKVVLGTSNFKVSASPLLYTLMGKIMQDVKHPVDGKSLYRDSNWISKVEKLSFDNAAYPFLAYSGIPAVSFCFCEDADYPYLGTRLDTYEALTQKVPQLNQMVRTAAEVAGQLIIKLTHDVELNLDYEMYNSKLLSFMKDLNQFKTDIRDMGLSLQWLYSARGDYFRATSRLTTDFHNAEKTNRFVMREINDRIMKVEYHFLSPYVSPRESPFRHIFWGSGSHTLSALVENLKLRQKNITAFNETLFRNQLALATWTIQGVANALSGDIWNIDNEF
Experimental: as §1

Substance: Ziconitide
anti-drug antibodies (ADAs) [1]: no anti-drug antibodies (ADAs) were detectable
anti-drug antibodies (ADAs) [2]: no anti-drug antibodies (ADAs) were detectable

Substance: cyclotide binding Hu LRP-1; loop 1 peptide WYETKTKLYVGVVK (SEQ ID NO:43); cyclotide SEQ ID NO:89 (GGVCWYETKTKLYVGVVKCRRDSDCPGACICRGNGYCGSGSD; not fully specified (bridges); cysteine pairing not given here) [CYC34]
trastuzumab delivery to the brain (percents of injected dose per gram of brain) [3]: greatest enhancement

internalization (mean FITC fluorescence intensity) [4]: not
internalization (mean FITC fluorescence intensity) [5]: not
Substance: adalimumab

Substance: cyclotide binding Hu LRP-1; loop 1 peptide WLTLGIANKGIDVYDVK (SEQ ID NO:39); cyclotide SEQ ID NO:85 (GGVCWLTLGIANKGIDVYDVKCRRDSDCPGACICRGNGYCGSGSD; not fully specified (bridges); cysteine pairing not given here) [CYC30]
trastuzumab delivery to the brain (percents of injected dose per gram of brain) [3]: did not exhibit enhancement
